Test results published in patent publication US6893650B1, “N2-phenylamidine derivatives” (Bayer Cropscience GmbH, priority 1999, dated 2005).
Further: key: 1 is little or no control; 2 is moderate control; 3 is good to total control.

The compounds below were run on Leptosphaeria nodorum (assay: glume blotch, spray or stem-base drench of test plants, infection visually estimated). Conditions: concentration of 500 ppm (w/v) or less.
Type: in vivo
For `Cc1cc(Oc2cccc(C(F)(F)F)c2)c(C)cc1N=CN(C)C` [Compound 1], the “score of 1 to 3 (control, degree of infection visually estimated)” value (“score” for short) was 2. With `CC(=Nc1cc(C)c(Oc2cccc(C(F)(F)F)c2)cc1C)N(C)C` [Compound 2] the “score” value was 2. In the case of `CC(=Nc1cc(C)c(SCc2cccc(C(F)(F)F)c2)cc1C)N(C)C` [Compound 5], the “score” value was 2. For `Cc1cc(Oc2cccc(Cl)c2)c(C)cc1N=CN(C)C` [Compound 7], the “score” value was 2. With `Cc1cc(Oc2cccc(C(C)(C)C)c2)c(C)cc1N=CN(C)C` [Compound 8] the “score” value was 2. With `COc1cc(N=CN(C)C)c(Br)cc1Oc1cccc(C(F)(F)F)c1` [Compound 15] the “score” value was 2. With `COc1ccccc1Oc1cc(C)c(N=CN(C)C)cc1C` [Compound 27] the “score” value was 2. In the case of `Cc1cc(Oc2cccc(C#N)c2)c(C)cc1N=CN(C)C` [Compound 29], the “score” value was 2. `Cc1cc(Oc2cccc(C(F)(F)F)c2)c(C)cc1N=CN1CCOCC1` [Compound 35] was tested, and the “score” value was 2. With `CCN(C=Nc1cc(C)c(Oc2cccc(C(F)(F)F)c2)cc1C)CC` [Compound 37, N,N-Diethyl-N′-[4-(3-trifluoromethylphenoxy)-2,5-xylyl]formamidine] the “score” value was 2. With `Cc1cc(Oc2cccc(C(F)(F)F)c2)c(C)cc1N=CN1CCCC1` [Compound 41] the “score” value was 2. `Cc1cc(Oc2cccc(C(F)(F)F)c2)c(C)cc1N=CN1CCCCC1` [Compound 43] was tested, and the “score” value was 2. For `CCN(C)C=Nc1cc(C)c(Oc2cccc(C(F)(F)F)c2)cc1C` [Compound 45, N-Ethyl-N-methyl-N′-[4-(3-trifluoromethylphenoxy)-2,5-xylyl]formamidine], the “score” value was 2. For `Cc1cc(Oc2nc(-c3ccccc3)ns2)c(C)cc1N=CN(C)C` [Compound 48, N,N-Dimethyl-N′-[4-(3-phenyl-1,2,4-thiadiazol-5-yloxy)-2,5-xylyl]formamidine], the “score” value was 2. With `COc1cccc(Oc2cc(C)c(N=CN(C)C)cc2C)c1` [Compound 56] the “score” value was 2. `CCNC=Nc1cc(C)c(Oc2cccc(C(F)(F)F)c2)cc1C` [Compound 59] was tested, and the “score” value was 2. `Cc1cc(Oc2ccc(C(C)(C)C)cc2)c(C)cc1N=CN(C)C` [Compound 61] was tested, and the “score” value was 2. For `Cc1cc(Oc2nc(Br)ns2)c(C)cc1N=CN(C)C` [Compound 72], the “score” value was 2. In the case of `CCN(C)C=Nc1cc(C)c(Oc2cccc(C(C)(C)C)c2)cc1C` [Compound 100], the “score” value was 2. With `CCC(C)c1ccc(Oc2cc(C)c(N=CN(C)C)cc2C)cc1` (stereo not drawn) [Compound 130] the “score” value was 2. For `Cc1cc(OC(=O)c2sc3ccccc3c2Cl)c(C)cc1N=CN(C)C` [Compound 160], the “score” value was 2. In the case of `CCC(C)(C)c1ccc(Oc2cc(C)c(N=CN(C)C)cc2C)cc1` [Compound 170], the “score” value was 2. For `CCc1ccc(Oc2cc(C)c(N=CN(C)C)cc2C)cc1` [Compound 181], the “score” value was 2. For `Cc1cc(Oc2nc3cc(C(F)(F)F)ccc3s2)c(C)cc1N=CN(C)C` [Compound 194], the “score” value was 2. With `Cc1cc(Oc2nc(-c3ccccc3)ns2)c(C(C)C)cc1N=CN(C)C` [Compound 208] the “score” value was 2. With `Cc1cc(C(C#N)c2cccc(C(F)(F)F)c2)c(C)cc1N=CN(C)C` (stereo not drawn) [Compound 214] the “score” value was 2. With `C#CCOc1ccc(Oc2cc(C)c(N=CN(C)C)cc2C)cc1` [Compound 235] the “score” value was 2. With `Cc1cc(Oc2nc(-c3ccccc3)ns2)c(C)cc1N=CN1CCCCC1` [Compound 246] the “score” value was 2. `Cc1cc(Oc2cccc(C(C)(C)C)c2)c(C)cc1N=CN(C)C(C)C` [Compound 283] was tested, and the “score” value was 2. In the case of `C=CCN(C)C=Nc1cc(C)c(Oc2cccc(C(C)(C)C)c2)cc1C` [Compound 284], the “score” value was 2. `Cc1cc(OCc2ccc(OCC3CCCCC3)cc2)c(C)cc1N=CN(C)C` [Compound 290] was tested, and the “score” value was 2. In the case of `Cc1cc(Oc2ccc(OC(C)C)cc2)c(C)cc1N=CN(C)C` [Compound 303], the “score” value was 2. `CCN(C)C=Nc1cc(C)c(Oc2cccc(Cl)c2)cc1C` [Compound 310] was tested, and the “score” value was 2. For `CCN(C)C=Nc1cc(C)c(Oc2ccc(C(C)C)cc2)cc1C` [Compound 311], the “score” value was 2. For `CCN(C)C=Nc1cc(C)c(Oc2cccc(OC)c2)cc1C` [Compound 312], the “score” value was 2. `CCN(C)C=Nc1cc(C)c(Oc2cccc(Oc3ccccc3)c2)cc1C` [Compound 325] was tested, and the “score” value was 2. `CCN(C)C=Nc1cc(C)c(Oc2ccc(C(C)(C)C)cc2)cc1C` [Compound 326] was tested, and the “score” value was 2. With `Cc1cc(Oc2nc(-c3ccc(Cl)c(Cl)c3)cs2)c(C)cc1N=CN(C)C` [Compound 351] the “score” value was 2. In the case of `CCN(C)C=Nc1cc(C)c(Oc2ccc(Cl)c(C(F)(F)F)c2)cc1C` [Compound 364], the “score” value was 2. `Cc1cc(C)nc(Oc2cccc(Oc3cc(C)c(N=CN(C)C)cc3C)c2)n1` [Compound 369] was tested, and the “score” value was 2. With `Cc1cc(Oc2cccc(C3CCCC3)c2)c(C)cc1N=CN(C)C` [Compound 378] the “score” value was 2. In the case of `COC(C)(C)c1cccc(Oc2cc(C)c(N=CN(C)C)cc2C)c1` [Compound 392], the “score” value was 2.
